Earlier results in patent US20160206617A1, “COMPOSITIONS AND THERAPEUTIC METHODS FOR ACCELERATED PLAQUE REGRESSION” (RESVERLOGIX CORP., priority 2013, published 2016).
Like-named read-outs stand apart in the source and are kept apart here.

Key:
[1] = tested on: ApoA-I; conditions: in vitro and in vivo
[2] = tested on: atherosclerosis; conditions: SATURN; 2 years; rosuvastatin 40 mg daily, atorvastatin 80 mg daily
[3] = tested on: atherosclerosis; conditions: REVERSAL; 2 years; pravastatin 40 mg daily, atorvastatin 80 mg daily
[4] = tested on: atherosclerosis

Compound | effect on plasma levels of ApoA-I and HDL [1] | median change in PAV [2] | median change in PAV [3] | median change PAV ([4]; ASTEROID, 2 years, rosuvastatin 40 mg daily, all patients) | median decrease in PAV from baseline ([4]; ASTEROID, subgroup with average HDL-C during treatment less than 40 mg/dL) | PAV decrease (median change) ([4]; FIG. 8, rosuvastatin 40 mg without RVX-208, after 104 weeks, below median HDL)
COc1cc(OC)c2c(=O)[nH]c(-c3cc(C)c(OCCO)c(C)c3)nc2c1 [RVX-208, 2-(4-(2-hydroxyethoxy)-3,5-dimethylphenyl)-5,7-dimethoxyquinazolin-4(3H)-one] | increase plasma levels of ApoA-I and HDL | – | – | – | – | –
CC(C)c1c(C(=O)Nc2ccccc2)c(-c2ccccc2)c(-c2ccc(F)cc2)n1CC[C@@H](O)C[C@@H](O)CC(=O)O [atorvastatin] | – | −0.99% | +0.2% | – | – | –
CC(C)c1nc(N(C)S(C)(=O)=O)nc(-c2ccc(F)cc2)c1/C=C/[C@@H](O)C[C@@H](O)CC(=O)O [rosuvastatin, (3R,5S,6E)-7-[4-(4-fluorophenyl)-2-(N-methylmethanesulfonamido)-6-(propan-2-yl)pyrimidin-5-yl]-3,5-dihydroxyhept-6-enoic acid] | – | −1.22% | – | −0.79% | −1.3% | 1.30%
